In patent US8299083B2, “PDE5 inhibitor compositions and methods for treating cardiac indications” (The Johns Hopkins University, priority 2004, dated 2012):
Values joined by “and” are separate entries in the source; they are usually repeats but may differ in a detail not shown here. Equal values may be shown once.

Experiments:
myocardial cGMP = assay: Myocardial cyclic nucleotide levels; assay type: in vivo, mouse; conditions: for whole myocardial cGMP: acute intravenous administration
Source text: Hearts were washed in ice-cold PBS, homogenized in 6% trichloroacetic acid, centrifuged and extracted with water-saturated ether. The aqueous layer was transferred, vacuum dried, and the pellet resuspended in sodium acetate buffer for cAMP and cGMP enzyme immunoassay (Amersham Pharmacia Biotech, Buckinghamshire, UK).

[1] = test system: C57bl6 mice, isoproterenol-stimulated heart; assay: Acute isoproterenol-stimulated contractility in intact mice (pressure-volume relations); assay type: in vivo, mouse; conditions: acute intravenous administration
Description: Isoproterenol (ISO: 20 ng/kg/minutes i.v.×5 min) with or without PDE5A inhibitor was given to anesthetized intact mice, and in vivo heart function assessed by pressure-volume relations at a fixed atrial pacing rate of 600-650 min^−1. Data were measured at baseline, with ISO, re-baseline, PDE5A-inhibition, and PDE5A inhibition+ISO. The ISO-only response was highly reproducible.

fetal gene expression = assay: Cardiac fetal gene expression (RNA dot blot) in TAC hearts; assay type: in vivo, mouse; conditions: 3 wk TAC
Description: RNA samples were prepared from snap-frozen hearts using a ready-to-use reagent for the isolation of total RNA TRIZOL reagent (Life Technology, Gaithersburg, Md.) according to the manufacturer's protocol. RNA dot-blot analysis was performed using a published protocol with a set of oligonucleotide probes^59. Data are shown normalized to GAPDH measured for each respective sample.

purified PDE5A = purified PDE5A (Homo sapiens, UniProt O76074); conditions: cited from earlier work
[2] = test system: C57bl6 mice, isoproterenol-induced hypertrophy; assay: Chronic isoproterenol infusion (osmotic pump) cardiac hypertrophy; assay type: in vivo, mouse; conditions: 2 weeks
Description: Acute increases in cardiac chamber contractility were induced by isoproterenol infusion in control C57b16 mice. The increase in cardiac systolic function was assessed by in vivo pressure-volume relations (FIG. 11E), and is reflected by a widening of the loop and shift of the upper left corner to the left. […] This supports the myocyte effects at the intact heart level. Furthermore, if isoproterenol is infused chronically by means of an implanted osmotic mini-pump, the heart responds by increasing the cardiac mass (hypertrophy) and with some dilation. This is shown for a group of control C57b16 mice (FIGS. 12A and 12B).

[3] = test system: C57BL/6 mice, pressure overload by transverse aortic constriction; assay: In vivo cardiac hemodynamics by pressure-volume analysis, TAC mice; parameters: species or system mouse; conditions: 3 wk TAC, compared with sildenafil results
Description: (§1) Pressure overload was produced by transverse aortic constriction.
Transthoracic two-dimensional guided M-mode echocardiography was performed in non-anesthetized mice. Measurements were done using an echocardiography system, the SEQUOIA C256 (Siemens, Munich, Del.) with the 15 MHz linear-array transducer. Intact heart hemodynamic analysis was performed as described^90. These studies employed a four-electrode pressure-volume catheter (model SPR-839, Millar Instruments) placed through the left ventricular apex in the open chest anesthetized animal and positioned along the longitudinal axis to record chamber volume by impedance and pressure by micromanometry.
All hemodynamic data were recorded using custom developed software, digitizing signals at 2 KHz. End-diastolic and end-systolic volumes were the average of volumes measured during isovolumic contraction and relaxation, respectively. ESP was the pressure at maximal chamber elastance (P/V ratio)^1. EDP was the diastolic pressure at the lower right hand corner of the pressure-volume loop. Cardiac output was determined from a perivascular flow probe (Transonics, Ithica, N.Y.) placed around the thoracic aorta. Ea was equal to the ratio of end-systolic pressure divided by stroke volume. The volume catheter signal was calibrated for both gain and offset. Gain was determined by setting the catheter-derived cardiac output (equal to pressure-volume loop width times heart rate) to that obtained from the calibrated flow probe value. Offset was determined using the hypertonic saline method Ventricular power was equal to the instantaneous product of pressure times flow, and the peak power was divided by EDV to obtain the power index PMXI^79. […] The slope of this relation Ees was normalized by heart mass and expressed per gm heart mass. Msw was derived from the linear relation between stroke work and EDV from the same set of variably loaded cardiac cycles used to derive Eesn, and is another load-independent assessment of systolic contractile function^4. Tau was obtained from the model: P=Po+ae^−t/□ . . . fitting data during isovolumic relaxation. dP/dt was derived from a digital filter (5-point weighted slope). PFR/EDV was derived from the maximal first derivative of the volume signal during early diastole, divided by EDV.

[4] = test system: C57BL/6 mice, pressure overload by transverse aortic constriction; assay: TAC-induced cardiac hypertrophy, remodeling and fibrosis (heart weight/tibia length, histology); assay type: in vivo, mouse; conditions: TAC mice, concurrent oral treatment
Source text: TAC induced marked heart chamber and cellular hypertrophy (+100% by 3-weeks) that progressed to chamber dilation with reduced fractional shortening after 9 weeks. […] TAC induced a time-dependent increase in myocardial fibrosis and myocyte hypertrophy and both were suppressed by PDE5A inhibition (FIG. 1C, e.g. 67% reduction in fibrosis in 9-week hearts, p<0.0001).
as §1
Hearts were fixed with 10% formalin overnight, then embedded in paraffin, sectioned at 5 μm thickness and stained with PAS methenamine. Cardiomyocyte diameter and interstitial collagen fraction were determined using computer-assisted image analysis (Adobe Photoshop 5.0, NIH Image J), with the observer blinded as to tissue source. At least 4-5 different hearts, with five separate fields of cells (total 50-70 cells for each heart) were quantified for cellular analysis.

ex vivo vascular rings = conditions: cited from earlier work
[5] = test system: isolated adult murine myocytes; assay: Isoproterenol-stimulated contraction of isolated adult cardiac myocytes; assay type: cell-based, mouse; conditions: ODQ plus sildenafil plus ISO
Description: Louis, Mo.) for 6-7 min. Ventricles were gently chopped, filtered (150μ mesh), centrifuged (500 RPM×1 min), and rinsed in Tyrode's solution with increasing calcium (final 1.8 mM Ca^2+). Cells were incubated with 5 μM Indo-1 AM (Molecular Probes), rinsed, and studied at 27° C. by field stimulation in an inverted fluorescence microscope (Diaphot 200; Nikon, Inc). Sarcomere length (IonOptix, MA) and whole cell calcium transients were measured.

PKG-1 = PKG-1 activity in isolated adult myocytes; assay type: cell-based, mouse
Description: After 10 min, cells were lysed and PKG-1 activity determined.

[6] = human, cited from earlier work
[7] = test system: total cGMP-esterase activity; assay: cGMP-esterase (low Km cGMP phosphodiesterase) activity of heart and isolated myocytes; assay type: biochemical, mouse
[8] = inhibitor combined with isoproterenol

CC[C@H](C)[C@@H]1NC(=O)[C@H](CCCNC(=N)N)NC(=O)[C@H](CC(=O)O)NC(=O)[C@H](CCSC)NC(=O)[C@H](CCCNC(=N)N)NC(=O)CNC(=O)CNC(=O)[C@H](Cc2ccccc2)NC(=O)[C@@H](NC(=O)[C@H](CO)NC(=O)[C@H](CO)NC(=O)[C@H](CCCNC(=N)N)NC(=O)[C@H](CCCNC(=N)N)NC(=O)[C@H](CC(C)C)NC(=O)[C@@H](N)CO)CSSC[C@@H](C(=O)N[C@@H](CC(N)=O)C(=O)N[C@@H](CO)C(=O)N[C@@H](Cc2ccccc2)C(=O)N[C@@H](CCCNC(=N)N)C(=O)N[C@@H](Cc2ccc(O)cc2)C(=O)O)NC(=O)CNC(=O)[C@H](CC(C)C)NC(=O)CNC(=O)[C@H](CO)NC(=O)[C@H](CCC(N)=O)NC(=O)[C@H](C)NC(=O)CNC1=O [ANP, atrial natriuretic peptide]
whole myocardial cGMP (myocardial cGMP): marked rise in myocardial cGMP | isoproterenol-stimulated contractility in intact heart [1]: had no effect on the ISO response in the intact heart

CCCc1nn(C)c2c(NCc3ccc(OC)c(Cl)c3)nc(COCC(=O)O)nc12 [EMD 360527, [7-(3-Chloro-4-methoxy-benzylamino)-1-methyl-3-propyl-1H-pyrazolo[4,3-d]pyrimidin-5-ylmethoxy]-acetic acid]
fetal gene expression (fetal gene expression): reversed the TAC-induced rise in fetal gene expression | total myocardial cGMP (myocardial cGMP; TAC hearts, chronic co-treatment): slight decline | whole myocardial cGMP (myocardial cGMP): negligible effect | IC50 (purified PDE5A): ~10 nM | development of cardiac hypertrophy [2]: markedly inhibited the development of cardiac hypertrophy | cardiac function by pressure-volume analysis [3]: near identical physiologic results | TAC-induced hypertrophy and chamber remodeling [4]: yielded identical findings | TAC-induced hypertrophy and chamber remodeling ([4]; listed as EMD360527): prevented the development of both cardiac hypertrophy and accompanying chamber dilation and remodeling | IC50 (ex vivo vascular rings): 1000 nM

O=c1onc2cnc3ccccc3n12 [ODQ]
blunting of ISO response by sildenafil when sGC is inhibited [5]: prevented

CN1CC(=O)N2[C@H](c3ccc4c(c3)OCO4)c3[nH]c4ccccc4c3C[C@@H]2C1=O [tadalafil]
enhancement of PKG-1 activity (PKG-1; basal conditions, inhibitor alone): ~10% | rise in PKG-1 activity (PKG-1; [8]): 50% and 70% | rise in PKG-1 activity over ISO alone (PKG-1; [8]): 30% | time of peak plasma concentration post-dose ([6]; in vivo, po): two | apparent oral clearance (CL/F) [6]: 2.48 L/h | mean elimination half-life [6]: about 17.5 h | proportion of total cGMP-esterase activity attributable to PDE5 ([7]; 3 week TAC hearts): ~60% | percent of total cGMP-esterase activity blocked by co-incubation ([7]; sham control hearts (baseline)): approximately 30%
